The subject of series [1] is Human alphaherpesvirus 2. Put plainly: Antiviral activity against HSV-2 infected in Vero cells incubated for 5 days by fluorescence based microtiter plate reader assay. The class given is functional, organism-based. Particulars: Human alphaherpesvirus 2, Vero, 120 h.
Series [2] has as its system Human alphaherpesvirus 1. Put plainly: Antiviral activity against HSV-1 infected in Vero cells incubated for 5 days by fluorescence based microtiter plate reader assay. The class given is functional, organism-based. The conditions noted are these: Human alphaherpesvirus 1, Vero, 120 h.
Series [3] can be described thus: Oral bioavailability in human at 400 mg administered as 1 hr intravenous infusion. It counts as ADME, organism-based. The conditions noted are these: in vivo.
Series [4] can be described thus: Octanol/water partition coefficient, log P of the compound. The class given is physicochemical.
The test system of series [5] is Human alphaherpesvirus 2. Put plainly: Antiviral activity against HSV-2 infected in po dosed BALB/c mouse administered twice on infection day and three times daily from day 1 to 4 post infection. The conditions noted are these: Human alphaherpesvirus 2, 24 h. The class given is functional.
A short description of series [6]: Oral bioavailability in human at 350 mg administered as 1 hr intravenous infusion once a week and measured upto 24 hrs. It counts as ADME, organism-based. The conditions noted are these: in vivo.
A short description of series [7]: Oral bioavailability in dog. It counts as ADME, organism-based, Canis lupus familiaris. Particulars: in vivo.
Series [8] can be described thus: Oral bioavailability in monkey. The class given is ADME, organism-based, Macaca mulatta. The conditions noted are these: rhesus monkey, in vivo.
The nature of series [9]: Oral bioavailability in rat. The class given is ADME, organism-based. Particulars: in vivo.
Series [10] deals with Human alphaherpesvirus 1. The series can be described thus: Antiviral activity against HSV-1 McKrae infected in BALB/c mouse assessed as reduction in viral load at 50 mg/kg, po infected with virus for 35 days prior to heat stress reactivation followed by compound treatment immediately and at 12 hrs post reactivation measured after 24 hrs post reactivation. More on the design: scale not given: the % may be the effect or the level left. It counts as functional.

Series [11] in a line: Half life in monkey at 1 mg/kg, po. It counts as ADME, organism-based, Macaca mulatta. Particulars: rhesus monkey, in vivo.
A short description of series [12]: Protein binding in guinea pig plasma assessed as unbound fraction. It counts as ADME, cell-free, Cavia porcellus.
Series [13] can be described thus: Oral bioavailability in rat at 1 mg/kg. The class given is ADME, organism-based. Particulars: in vivo.
A short description of series [14]: Protein binding in rat plasma assessed as unbound fraction. It counts as ADME, cell-free.
The target of the next series is Carbonic anhydrase 2 (Homo sapiens, UniProt P00918). The series can be described thus: Inhibition of carbonic anhydrase 2 (unknown origin) by CO2 hydration assay.
Series [15] in a line: Half life in dog at 1 mg/kg, po. The class given is ADME, organism-based, Canis lupus familiaris. Particulars: in vivo.
A short description of series [16]: AUC in monkey at 1 mg/kg, po. It counts as ADME, organism-based, Macaca mulatta. Also noted: dose 1 mg/kg, route po. Particulars: rhesus monkey, in vivo.
Series [17] deals with Voltage-gated inwardly rectifying potassium channel KCNH2 (Homo sapiens, UniProt Q12809). The series can be described thus: Inhibition of human ERG expressed in HEK293 cells by whole cell patch clamp assay. The class given is toxicity, cell-based. Background: In patch-clamp work, channel activity is measured electrically.
Series [18] in a line: Oral bioavailability in monkey at 1 mg/kg. It counts as ADME, organism-based, Macaca mulatta. Particulars: rhesus monkey, in vivo.
The nature of series [19]: AUC in rat at 1 mg/kg, po. Particulars: in vivo. More on the design: dose 1 mg/kg, route po. The class given is ADME, organism-based.
Series [20] can be described thus: Protein binding in human plasma assessed as unbound fraction. The class given is ADME, cell-free.
Series [21] is described as follows: Protein binding in mouse plasma assessed as unbound fraction. The class given is ADME, cell-free.
Series [22] can be described thus: Oral bioavailability in human at 1 mg/kg. It counts as ADME, organism-based. Particulars: in vivo.
A short description of series [23]: AUC in dog at 1 mg/kg, po. The class given is ADME, organism-based, Canis lupus familiaris. The conditions noted are these: in vivo. More on the design: dose 1 mg/kg, route po.
The nature of series [24]: AUC in human at 1 mg/kg, po. The class given is ADME, organism-based. More on the design: dose 1 mg/kg, route po. Particulars: in vivo.
The nature of series [25]: Half life in human at 1 mg/kg, po. The class given is ADME, organism-based. The conditions noted are these: in vivo.
Series [26] in a line: Oral bioavailability in dog at 1 mg/kg. It counts as ADME, organism-based, Canis lupus familiaris. The conditions noted are these: in vivo.
The nature of series [27]: Protein binding in dog plasma assessed as unbound fraction. The class given is ADME, cell-free, Canis lupus familiaris.
The nature of series [28]: Terminal elimination half life in human at […]. The class given is ADME, organism-based. Particulars: in vivo, read-out: beta t1/2 (converted).
A short description of series [29]: Half life in rat at 1 mg/kg, po. It counts as ADME, organism-based. The conditions noted are these: in vivo.
Series [30] in a line: Protein binding in rabbit plasma assessed as unbound fraction. The class given is ADME, cell-free, Oryctolagus cuniculus.
Series [31] in a line: Protein binding in minipig plasma assessed as unbound fraction. The conditions noted are these: pig. The class given is ADME, cell-free, Sus scrofa domesticus.
The nature of series [32]: Protein binding in monkey plasma assessed as unbound fraction. It counts as ADME, cell-free, Macaca mulatta. Particulars: rhesus monkey.
The test system of series [33] is Human alphaherpesvirus 1. Put plainly: Antiviral activity against HSV-1 infected in po dosed BALB/c mouse administered twice on infection day and three times daily from day 1 to 4 post infection. It counts as functional. Particulars: Human alphaherpesvirus 1, 96 h, time 4 day.

Sequence of Voltage-gated inwardly rectifying potassium channel KCNH2 (Q12809 whole entry): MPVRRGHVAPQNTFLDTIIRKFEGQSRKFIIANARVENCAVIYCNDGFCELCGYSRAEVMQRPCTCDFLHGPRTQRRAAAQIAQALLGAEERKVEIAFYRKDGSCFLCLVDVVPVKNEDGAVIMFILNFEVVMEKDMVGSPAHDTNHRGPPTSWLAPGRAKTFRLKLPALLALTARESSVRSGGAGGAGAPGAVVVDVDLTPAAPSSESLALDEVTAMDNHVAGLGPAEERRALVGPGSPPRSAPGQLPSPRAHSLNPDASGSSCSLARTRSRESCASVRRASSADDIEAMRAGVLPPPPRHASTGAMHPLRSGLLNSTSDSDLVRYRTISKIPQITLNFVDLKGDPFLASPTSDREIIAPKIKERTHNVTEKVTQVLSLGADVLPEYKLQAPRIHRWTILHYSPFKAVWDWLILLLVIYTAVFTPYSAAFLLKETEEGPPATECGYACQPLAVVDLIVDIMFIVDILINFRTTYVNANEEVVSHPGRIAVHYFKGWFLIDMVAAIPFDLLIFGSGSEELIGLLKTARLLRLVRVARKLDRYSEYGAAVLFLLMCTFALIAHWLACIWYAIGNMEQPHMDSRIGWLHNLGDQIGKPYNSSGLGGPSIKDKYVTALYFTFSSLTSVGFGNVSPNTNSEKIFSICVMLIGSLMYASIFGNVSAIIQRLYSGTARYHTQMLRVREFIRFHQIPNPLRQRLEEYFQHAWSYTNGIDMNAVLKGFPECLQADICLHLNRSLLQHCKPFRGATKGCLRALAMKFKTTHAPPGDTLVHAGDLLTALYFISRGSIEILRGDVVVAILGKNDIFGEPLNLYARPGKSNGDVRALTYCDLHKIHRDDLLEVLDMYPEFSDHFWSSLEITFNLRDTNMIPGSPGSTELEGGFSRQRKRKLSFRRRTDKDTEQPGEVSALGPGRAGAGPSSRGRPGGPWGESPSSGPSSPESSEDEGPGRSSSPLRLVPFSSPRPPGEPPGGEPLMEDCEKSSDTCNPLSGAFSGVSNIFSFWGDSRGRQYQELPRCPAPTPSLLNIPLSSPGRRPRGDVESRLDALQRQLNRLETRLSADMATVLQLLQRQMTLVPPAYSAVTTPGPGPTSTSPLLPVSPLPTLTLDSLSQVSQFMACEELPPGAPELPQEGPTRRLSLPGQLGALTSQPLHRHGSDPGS

In general, IC50 refers to the concentration at which inhibition is half-maximal. Regarding `Cc1nc(N(C)C(=O)Nc2ccc(-c3ccccc3)cc2)sc1S(=O)(=O)NC1CC1`, the IC50 with Human alphaherpesvirus 2 [1] was found to be 100 nM; in the series with Human alphaherpesvirus 1 [2], 20 nM.

`Cc1nc(N(C)C(=O)Cc2ccc(-c3ccccc3)cc2)sc1S(=O)(=O)NCC(F)(F)F`: the 50% inhibitory concentration (IC50) in the series with Human alphaherpesvirus 2 [1] was found to be 150 nM; in the series with Human alphaherpesvirus 1 [2], 50 nM.

Take `Cc1nc(N(C)C(=O)Cc2ccc(-c3ccccc3)cc2)sc1S(=O)(=O)NCCO`: the IC50 was 5 nM in the series on Human alphaherpesvirus 2 [1] and 0.75 nM in the series on Human alphaherpesvirus 1 [2].

For the compound `Cc1nc(N(C)C(=O)Nc2ccc(N3CCOCC3)cc2)sc1S(=O)(=O)N(C)C`, the IC50 in the series on Human alphaherpesvirus 2 [1] came to 1500 nM; with Human alphaherpesvirus 1 [2], 750 nM.

As to `Cc1nc(C(C)C(=O)Nc2ccc(-c3ccccc3)cc2)sc1S(N)(=O)=O` (centres undefined), the figures for the IC50 in the series on Human alphaherpesvirus 2 [1] and with Human alphaherpesvirus 1 [2] were 10 nM and 50 nM, respectively.

Take `CNS(=O)(=O)c1sc(N(C)C(=O)Nc2ccc(-c3ccccc3)cc2)nc1C`: the values for the IC50 with Human alphaherpesvirus 2 [1] and in the series with Human alphaherpesvirus 1 [2] were 5 nM and 1 nM, respectively.

What is called bioavailability is dose-corrected exposure relative to a reference, in per cent. Consider `Nc1nc2c(ncn2CCC(CO)CO)c(=O)[nH]1` [PENCICLOVIR], for which the bioavailability in series [3] stood at 60%.

Regarding `Cc1nc(N(C)C(=O)Cc2ccc(-c3c(C)noc3C)cc2)sc1S(N)(=O)=O`, the IC50 in the series on Human alphaherpesvirus 1 [2] is > 5 nM.

Take `Cc1nc(N(C)C(=O)Cc2ccc(-c3ccccc3)cc2)sc1S(=O)(=O)NCCN`: the IC50 in the series on Human alphaherpesvirus 1 [2] came out at 100 nM.

For `Cc1ccc(F)cc1-c1ccc(CC(=O)N(C)c2nc(C)c(S(N)(=O)=O)s2)cc1`, the 50% inhibitory concentration (IC50) worked out at 125 nM with Human alphaherpesvirus 2 [1] and 100 nM in the series on Human alphaherpesvirus 1 [2].

Turning to `Cc1nc(N(C)C(=O)Cc2ccc(-n3cccn3)cc2)sc1S(N)(=O)=O`, the values for the IC50 with Human alphaherpesvirus 2 [1] and with Human alphaherpesvirus 1 [2] were 100 nM and 10 nM, respectively.

Take `CNS(=O)(=O)c1ccc2c(c1)N(C(=O)Nc1ccc(N3CCCC3)cc1)C(C)C2` (centres undefined): the IC50 was determined as 40 nM in the series with Human alphaherpesvirus 2 [1] and 25 nM in the series on Human alphaherpesvirus 1 [2].

`CNS(=O)(=O)c1sc(N(C)C(=O)Cc2ccc(-c3ccccc3)cc2)nc1C`: the IC50 is 50 nM in the series with Human alphaherpesvirus 2 [1] and 0.5 nM with Human alphaherpesvirus 1 [2].

As for `COc1ccccc1-c1ccc(CC(=O)N(C)c2nc(C)c(S(N)(=O)=O)s2)cc1`, the IC50 with Human alphaherpesvirus 2 [1] turned out to be 0.05 nM; in the series on Human alphaherpesvirus 1 [2] it was 2 nM.

With `CC1Cc2ccc(S(N)(=O)=O)cc2N1C(=O)Nc1ccc(-c2ccccc2)cc1` (centres undefined), the IC50 in the series with Human alphaherpesvirus 2 [1] came out at 60 nM; in the series on Human alphaherpesvirus 1 [2] it was 10 nM.

A word on the logP: it is the decadic logarithm of the partition coefficient of the neutral form, usually between octanol and water. `CS(=O)(=O)O.Cc1nc(N(C)C(=O)Cc2ccc(-c3ccccn3)cc2)sc1S(N)(=O)=O.O`: the logP in series [4] is reported as 1.745.

On to `Cc1nc(NC(=O)Nc2ccc(N3CCOCC3)cc2)sc1S(=O)(=O)N(C)C`, for which the IC50 was found to be 4000 nM with Human alphaherpesvirus 2 [1] and 2000 nM with Human alphaherpesvirus 1 [2].

For the compound `COc1ccc(F)cc1-c1ccc(CC(=O)N(C)c2nc(C)c(S(N)(=O)=O)s2)cc1`, the 50% inhibitory concentration (IC50) with Human alphaherpesvirus 2 [1] was < 0.05 nM; in the series with Human alphaherpesvirus 1 [2], 0.25 nM.

For `Cc1nc(N(C)C(=O)Cc2ccc(-c3ccccc3)cc2)sc1S(N)(=O)=O`, the IC50 in the series on Human alphaherpesvirus 2 [1] was 5 nM; with Human alphaherpesvirus 1 [2], < 0.05 nM.

The ED50 is the dose that gives a 50% effect, or the effect in half of the subjects. As for `Nc1nc2c(ncn2COCCO)c(=O)[nH]1` [ACYCLOVIR], the ED50 with Human alphaherpesvirus 2 [5] came to 0.5 mg/kg. In addition, the bioavailability turned out to be 54% in series [6], 83% in [7], 63% in [8] and 65% in [9].

As to `CC1Cc2ccc(S(=O)(=O)NC3CC3)cc2N1C(=O)Nc1ccc(-c2ccccc2)cc1` (centres undefined), the IC50 with Human alphaherpesvirus 2 [1] came out at 150 nM; with Human alphaherpesvirus 1 [2], 50 nM.

One may read the AUC as the area under the concentration-time curve, a measure of exposure. For `Cc1nc(N(C)C(=O)Cc2ccc(-c3ccccn3)cc2)sc1S(N)(=O)=O`, the ED50 in the series with Human alphaherpesvirus 2 [5] came to 16 mg/kg; with Human alphaherpesvirus 1 [33], 22 mg/kg. The Activity with Human alphaherpesvirus 1 [10] amounted to 32%. The t1/2 in [11] is 30 h; in [15] it was 22 h; in series [29], 5 h. The Fu in series [12] came out at 5.9%; in [14] it was 1.2%; in series [20] it was 2.7%; in series [21], 0.97%; in series [27], 1%; in series [30], 3.4%. In addition, the Fu in [31] came to 2.5%; in series [32], 0.75%. Moreover, the bioavailability in series [13] is 65%; in series [3] it was 60%; in [26], 83%. The IC50 is 2000 nM against Carbonic anhydrase 2, 160000 nM in series [17], 16 nM in the series on Human alphaherpesvirus 2 [1] and 20 nM in the series with Human alphaherpesvirus 1 [2]. Besides, the AUC in [16] stood at 39.5 µg·h/mL; in [19] it was 12.9 µg·h/mL; in series [23] it was 54.2 µg·h/mL; in series [24] it was 90.8 µg·h/mL. The F in [18] was 63%; in [22] it was 73%. The half-life in series [25] and in series [28] was 60 h throughout.

For `CC(C)[C@H](N)C(=O)OCCOCn1cnc2c(=O)nc(N)[nH]c21` [VALACYCLOVIR], the figures for the 50% effective dose (ED50) in the series with Human alphaherpesvirus 2 [5] and with Human alphaherpesvirus 1 [33] were 14 mg/kg and 17 mg/kg, respectively.

Take `Cc1nc(N(C)C(=O)Cc2ccc(-c3cccnc3)cc2)sc1S(N)(=O)=O`: the IC50 with Human alphaherpesvirus 2 [1] and in the series with Human alphaherpesvirus 1 [2] was 5 nM each time.

These data come from ChEMBL document CHEMBL5108063, “Discovery, Chemistry, and Preclinical Development of Pritelivir, a Novel Treatment Option for Acyclovir-Resistant Herpes Simplex Virus Infections” (J Med Chem, 2022).
